This passage reports RP-LC retention time results from the METLIN SMRT retention time set (Domingo-Almenara et al. 2019).

The nature of the data set: gradient 5% acetonitrile 3 min, to 50% in 2 min, to 85% in 15 min, held 3 min, 100 µL/min. The note with it: column: Zorbax Extend-C18 2.1 x 50 mm; eluents: water / acetonitrile, 0.1% formic acid. An outline of the steps: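 Retention times come from adduct peaks that were picked computationally and then checked by hand. The standards, pure and pooled in mixtures of ~100 molecules, were run on a Zorbax Extend-C18 column (2.1 × 50 mm, 1.8 μm) at 100 μL/min with water and acetonitrile, each with 0.1% formic acid. Detection was by quadrupole time-of-flight mass spectrometry in positive and negative ionization mode, with a dead volume of 40 μL and a dwell volume of 900 μL.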
For `O=C(Nc1ccc(F)c(Cl)c1)Nc1nccn(-c2ccc3c(c2)CCC3)c1=O`, the RP-LC retention time was 1180 s. `Cc1ccc(NC(=O)N2CCC(n3c(-c4ccco4)nc4cccnc43)C2)cc1Cl` (stereo not drawn) returned an RP-LC retention time of 806 s. `Cc1cnc(C2CC2)n1CCNC(=O)C1CC=CC1` had an RP-LC retention time of 562 s. Then `Cc1nc(Cn2cccc2C(=O)Nc2cccc(C)c2C)no1`, with 821 s; and `Cn1c(=O)c2nc(S(=O)(=O)CCC(=O)Nc3ccc(Cl)cc3F)n(C)c2n(C)c1=O`, with 781 s; and `CS(=O)(=O)N1CCC(C2CCN(Cc3ccc(C#N)cc3)C2)CC1` (stereo not drawn), with 597 s. In turn, `CCOC(=O)N1CCN(C(=O)CSc2nncn2C)CC1` showed an RP-LC retention time of 560 s. Then `O=C(NCc1cccnc1)C1CCN(c2nc3ccc(-c4cncnc4)nc3s2)CC1`, with 584 s; and `CCN(CC)S(=O)(=O)c1c(C)nn(C(=O)c2ccccc2OC)c1C`, with 951 s; and `CCOCCCNC(=O)c1cn(CC)nc1S(=O)(=O)N1CCN(c2cccc(Cl)c2)CC1`, with 1030 s.

`Cc1cnc(C(=O)N2CC(n3cc(COc4ccncc4)nn3)C2)cn1` displayed an RP-LC retention time of 553 s.

Consider `O=C(NCCCN1CCCC1=O)C1CCN(c2cncnc2N2CCCCC2)CC1`, for which the RP-LC retention time came out at 582 s. Then `CCOC(=O)c1ccccc1NC(=O)Cn1nc2cc(-c3ccccn3)nc(C)n2c1=O`, with 875 s. Then `O=C(N[C@H]1C[C@@H]2C[C@H]1N(C(=O)c1ccccc1Cl)C2)c1cccs1`, with 643 s; and `COc1cccc(C(=O)CC2(O)C(=O)Nc3c(C)cccc32)c1` (stereo not drawn), with 728 s. The result for `O=C(c1ccccn1)N1CCN(c2cc(-c3ccccc3)ncn2)CC1` reads 551 s; that for `Cn1c(N2CCN(S(=O)(=O)c3cc(F)ccc3F)CC2)nc2ccccc21`, 601 s; that for `Cc1cc(C(=O)CSc2nnnn2-c2ccccc2)c(C)n1Cc1ccco1`, 969 s. Consider `Cc1c(C(=O)N2CCc3nc(NC(=O)C4CCCO4)sc3C2)cnn1-c1ccccc1` (stereo not drawn), for which the RP-LC retention time was determined as 665 s. The result for `O=S(=O)(c1ccc(Cl)cc1)N1CCC(c2nc(-c3cccc(-c4ccn[nH]4)c3)no2)CC1` reads 994 s.

In turn, `O=C(Cc1csc2nc(-c3ccccc3)cn12)Nc1ccc(F)c(Cl)c1` displayed an RP-LC retention time of 902 s.

Molecule `O=C(c1cc(=O)n2c(nc3ccccc32)s1)N1CCN(c2ccccn2)CC1` gave an RP-LC retention time of 634 s. Then `CCOc1ccc(S(=O)(=O)N2CCC(C(=O)NCCCO)CC2)cc1C`, with 707 s; and `O=C(COc1ccc(F)cc1)Nc1ccc(-c2nc(-c3ccc(Cl)cc3)no2)cc1`, with 1340 s.

Regarding `COc1ccc(CN(C)Cc2cc(=O)n3cc(Cl)ccc3n2)cc1`, the RP-LC retention time worked out at 624 s.

`CC(C)NC(=O)c1cc(N(C)C)nc2ccccc12` yielded an RP-LC retention time of 587 s.

`CCCCOc1ccc(C(=O)N2CCOC(c3ccccc3)C2)cc1` (stereo not drawn) registered an RP-LC retention time of 1060 s.

For the molecule `Cc1ccc(-c2cn3c(CC(=O)NC4CCCC4)csc3n2)cc1C`, the RP-LC retention time stood at 798 s. The result for `COc1ccc(-c2nc(C)cc3nn(CC(=O)NCc4ccccc4)c(=O)n23)cc1` reads 788 s; that for `O=C(Nc1cc(F)ccc1F)C1CCN(c2ccc(=O)n(-c3ccc(F)cc3)n2)CC1`, 874 s; that for `Cn1nc(C(=O)OCc2cc(-c3ccc(Cl)cc3)on2)ccc1=O`, 812 s.

On to `CCOc1ccccc1NC(=O)N1CCC2(C1)C(=O)N(C)c1ccccc12` (stereo not drawn), for which the RP-LC retention time amounted to 902 s.

Molecule `Cn1nccc1C(=O)N1CCc2c([nH]c3ccccc23)C1c1ccc(F)cc1` (stereo not drawn) showed an RP-LC retention time of 995 s.
